The source of these data is patent publication US11427567B2, “Imidazolyl pyrimidinylamine compounds as CDK2 inhibitors” (Incyte Corporation, priority 2019, dated 2022).

For the experiment, the target named is CDK2/Cyclin E1 (Homo sapiens (Human), UniProt P24941). Kind of experiment: CDK2/Cyclin E1 HTRF enzyme activity assay (Example A). It counts as biochemical. The following applies: 1 mM ATP. As for the experimental part: Assays were conducted in white 384-well polystyrene plates in a final reaction volume of 8 μL. […] HTRF signals were read after 1 hour at room temperature on a PHERAstar FS plate reader (BMG Labtech). Data was analyzed with IDBS XLFit and GraphPad Prism 5.0 software using a three or four parameter dose response curve to determine IC50 for each compound.
A general note: Time-resolved FRET reads energy transfer from a long-lived donor to a nearby acceptor.

Structures are written as SMILES. Some results are limits rather than exact numbers.

`CNCc1cc(F)c(-n2cnc(-c3nc(NC4CCN(S(C)(=O)=O)CC4)ncc3C(F)(F)F)c2)c(F)c1` [Example 350, 4-(1-(2,6-Difluoro-4-((methylamino)methyl)phenyl)-1H-imidazol-4-yl)-N-(1-(methylsulfonyl)piperidin-4-yl)-5-(trifluoromethyl)pyrimidin-2-amine] displayed an IC50 of at most 50 nM.
As for `CCN1CCN(Cc2cc(F)c(-n3cnc(-c4nc(NC5CCN(S(C)(=O)=O)CC5)ncc4C(F)(F)F)c3)c(F)c2)CC1` [Example 351, 4-(1-(4-((4-Ethylpiperazin-1-yl)methyl)-2,6-difluorophenyl)-1H-imidazol-4-yl)-N-(1-(methylsulfonyl)piperidin-4-yl)-5-(trifluoromethyl)pyrimidin-2-amine], the figure is at most 50 nM; as for `CN1CCN(Cc2cc(F)c(-n3cnc(-c4nc(NC5CCN(S(C)(=O)=O)CC5)ncc4C(F)(F)F)c3)c(F)c2)CC1` [Example 352, 4-(1-(2,6-Difluoro-4-((4-methylpiperazin-1-yl)methyl)phenyl)-1H-imidazol-4-yl)-N-(1-(methylsulfonyl)piperidin-4-yl)-5-(trifluoromethyl)pyrimidin-2-amine], at most 50 nM; as for `COC1CN(Cc2ccc(-n3cc(-c4nc(NC5CCN(S(C)(=O)=O)CC5)ncc4C(F)(F)F)nc3C)c(F)c2)C1` [Example 353, 4-(1-(2-Fluoro-4-((3-methoxyazetidin-1-yl)methyl)phenyl)-2-methyl-1H-imidazol-4-yl)-N-(1-(methylsulfonyl)piperidin-4-yl)-5-(trifluoromethyl)pyrimidin-2-amine], at most 50 nM.
Turning to `Cc1nc(-c2nc(NC3CCN(S(C)(=O)=O)CC3)ncc2C(F)(F)F)cn1-c1ccc(CN2CC(C)(O)C2)cc1F` [Example 354, 1-(3-Fluoro-4-(2-methyl-4-(2-((1-(methylsulfonyl)piperidin-4-yl)amino)-5-(trifluoromethyl)pyrimidin-4-yl)-1H-imidazol-1-yl)benzyl)-3-methylazetidin-3-ol], the IC50 is at most 50 nM.
For `Cc1nc(-c2nc(NC3CCN(S(C)(=O)=O)CC3)ncc2C(F)(F)F)cn1-c1ccc(CN2CC(O)C2)cc1F` [Example 355, 1-(3-Fluoro-4-(2-methyl-4-(2-((1-(methylsulfonyl)piperidin-4-yl)amino)-5-(trifluoromethyl)pyrimidin-4-yl)-1H-imidazol-1-yl)benzyl)azetidin-3-ol], the IC50 is at most 50 nM.
For the molecule `Cc1nc(-c2nc(NC3CCN(S(C)(=O)=O)CC3)ncc2C(F)(F)F)cn1-c1ccc(CNC2CC2)cc1F` [Example 356, 4-(1-(4-((Cyclopropylamino)methyl)-2-fluorophenyl)-2-methyl-1H-imidazol-4-yl)-N-(1-(methylsulfonyl)piperidin-4-yl)-5-(trifluoromethyl)pyrimidin-2-amine], the IC50 was at most 50 nM.
As for `CCN(CC)Cc1ccc(-n2cc(-c3nc(NC4CCN(S(C)(=O)=O)CC4)ncc3C(F)(F)F)nc2C)c(F)c1` [Example 357, 4-(1-(4-((Diethylamino)methyl)-2-fluorophenyl)-2-methyl-1H-imidazol-4-yl)-N-(1-(methylsulfonyl)piperidin-4-yl)-5-(trifluoromethyl)pyrimidin-2-amine], the figure is at most 50 nM.
In the case of `CCN(C)Cc1ccc(-n2cc(-c3nc(NC4CCN(S(C)(=O)=O)CC4)ncc3C(F)(F)F)nc2C)c(F)c1` [Example 358, 4-(1-(4-((Ethyl(methyl)amino)methyl)-2-fluorophenyl)-2-methyl-1H-imidazol-4-yl)-N-(1-(methylsulfonyl)piperidin-4-yl)-5-(trifluoromethyl)pyrimidin-2-amine], the IC50 is at most 50 nM.
Consider `CCNCc1ccc(-n2cc(-c3nc(NC4CCN(S(C)(=O)=O)CC4)ncc3C(F)(F)F)nc2C)c(F)c1` [Example 359, 4-(1-(4-((Ethylamino)methyl)-2-fluorophenyl)-2-methyl-1H-imidazol-4-yl)-N-(1-(methylsulfonyl)piperidin-4-yl)-5-(trifluoromethyl)pyrimidin-2-amine], for which the IC50 was at most 50 nM.
In turn, `CC(C)NCc1cccc(-n2cnc(-c3nc(NC4CCN(S(C)(=O)=O)CC4)ncc3C(F)(F)F)c2)c1Cl` [Example 360, 4-(1-(2-Chloro-3-((isopropylamino)meth-yl)phenyl)-1H-imidazol-4-yl)-N-(1-(methylsulfonyl)piperidin-4-yl)-5-(trifluoromethyl)pyrimi-din-2-amine] registered an IC50 of at most 50 nM.
Consider `CCNCc1cccc(-n2cnc(-c3nc(NC4CCN(S(C)(=O)=O)CC4)ncc3C(F)(F)F)c2)c1Cl` [Example 361, 4-(1-(2-Chloro-3-((ethylamino)methyl)phe-nyl)-1H-imidazol-4-yl)-N-(1-(methylsulfonyl)piperidin-4-yl)-5-(trifluoromethyl)pyrimi-din-2-amine], for which the IC50 was at most 50 nM.
Consider `CC1(O)CN(Cc2cccc(-n3cnc(-c4nc(NC5CCN(S(C)(=O)=O)CC5)ncc4C(F)(F)F)c3)c2Cl)C1` [Example 362, 1-(2-Chloro-3-(4-(2-((1-(methylsulfonyl)piperidin-4-yl)amino)-5-(trifluoromethyl)pyrimi-din-4-yl)-1H-imidazol-yl)benzyl)-3-methylazetidin-3-ol], for which the IC50 was at most 50 nM.
The result for `C[C@@]1(O)CCN(Cc2cccc(-n3cnc(-c4nc(NC5CCN(S(C)(=O)=O)CC5)ncc4C(F)(F)F)c3)c2Cl)C1` [Example 363, (R)-1-(2-Chloro-3-(4-(2-((1-(methylsulfonyl)piperidin-4-yl)amino)-5-(trifluoromethyl)pyrimi-din-4-yl)-1H-imidazol-1-yl)benzyl)-3-methylpyrrolidin-3-ol] reads at most 50 nM; that for `CS(=O)(=O)N1CCC(Nc2ncc(C(F)(F)F)c(-c3cn(-c4cccc(CN5CC[C@@H](O)C5)c4Cl)cn3)n2)CC1` [Example 364, (R)-1-(2-Chloro-3-(4-(2-((1-(methyslulfonyl)piperidin-4-yl)amino)-5-(trifluoromethyl)pyrimi-din-4-yl)-1H-imidazol-1-yl)benzyl)pyrrolidin-3-ol], at most 50 nM; that for `CS(=O)(=O)N1CCC(Nc2ncc(C(F)(F)F)c(-c3cn(-c4cccc(CN5CC[C@H](O)C5)c4Cl)cn3)n2)CC1` [Example 365, (S)-1-(2-Chloro-3-(4-(2-((1-(methylsulfonyl)piperidin-4-yl)amino)-5-(trifluoromethyl)pyrimi-din-4-yl)-1H-imidazol-1-yl)benzyl)pyrrolidin-3-ol], at most 50 nM.
In turn, `CS(=O)(=O)N1CCC(Nc2ncc(C(F)(F)F)c(-c3cn(-c4cccc(CN5CCC5)c4Cl)cn3)n2)CC1` [Example 366, 4-(1-(3-(Azetidin-1-ylmethyl)-2-chlorophenyl)-1H-imidazol-4-yl)-N-(1-(methylsulfonyl)piperidin-4-yl)-5-(trifluoromethyl)pyrimi-din-2-amine] gave a 50% inhibitory concentration (IC50) of at most 50 nM.
Regarding `CS(=O)(=O)N1CCC(Nc2ncc(C(F)(F)F)c(-c3cn(-c4cccc(CNC5CCOC5)c4Cl)cn3)n2)CC1` (stereo not shown) [Example 367, 4-(1-(2-Chloro-3-(((tetrahydrofuran-3-yl)amino)methyl)phenyl)-1H-imidazol-4-yl)-N-(1-(methylsulfonyl)piperidin-4-yl)-5-(trifluoromethyl)pyrimi-din-2-amine], the IC50 is at most 50 nM.
Take `CS(=O)(=O)N1CCC(Nc2ncc(C(F)(F)F)c(-c3cn(-c4cccc(CNC5CCOCC5)c4Cl)cn3)n2)CC1` [Example 368, 4-(1-(2-Chloro-3-(((tetrahydro-2H-pyran-4-yl)amino)methyl)phenyl)-1H-imidazol-4-yl)-N-(1-(methylsulfonyl)piperidin-4-yl)-5-(trifluoromethyl)pyrimi-din-2-amine]: the half-inhibitory concentration (IC50) is at most 50 nM.
As for `CS(=O)(=O)N1CCC(Nc2ncc(C(F)(F)F)c(-c3cn(-c4cccc(CCN5CCOCC5)c4Cl)cn3)n2)CC1` [Example 369, 4-(1-(2-Chloro-3-(2-morpholinoethyl)phenyl)-1H-imidazol-4-yl)-N-(1-(methylsulfonyl)piperidin-4-yl)-5-(trifluoromethyl)pyrimidin-2-amine], the figure is at most 50 nM; as for `CN(C)CCc1cccc(-n2cnc(-c3nc(NC4CCN(S(C)(=O)=O)CC4)ncc3C(F)(F)F)c2)c1Cl` [Example 370, 4-(1-(2-Chloro-3-(2-(dimethylamino)ethyl)phe-nyl)-1H-imidazol-4-yl)-N-(1-(methylsulfonyl)piperidin-4-yl)-5-(trifluoromethyl)pyrimi-din-2-amine], at most 50 nM; as for `CS(=O)(=O)N1CCC(Nc2ncc(C(F)(F)F)c(-c3cn(-c4cccc(CCNC5CC5)c4Cl)cn3)n2)CC1` [Example 371, 4-(1-(2-Chloro-3-(2-(cyclopropylamino)eth-yl)phenyl)-1H-imidazol-4-yl)-N-(1-(methylsulfonyl)piperidin-4-yl)-5-(trifluoromethyl)pyrimi-din-2-amine], at most 50 nM.
The result for `CC1(O)CN(CCc2cccc(-n3cnc(-c4nc(NC5CCN(S(C)(=O)=O)CC5)ncc4C(F)(F)F)c3)c2Cl)C1` [Example 372, 1-(2-Chloro-3-(4-(2-((1-(methylsulfonyl)piperidin-4-yl)amino)-5-(trifluoromethyl)pyrimi-din-4-yl)-1H-imidazol-1-yl)phenethyl)-3-methylazetidin-3-ol] reads at most 50 nM; that for `CS(=O)(=O)N1CCC(Nc2ncc(C(F)(F)F)c(-c3cn(-c4cccc(CCN5CCC5)c4Cl)cn3)n2)CC1` [Example 373, 4-(1-(3-(2-(Azetidin-1-yl)ethyl)-2-chlorophenyl)-1H-imidazol-4-yl)-N-(1-(methylsulfonyl)piperidin-4-yl)-5-(trifluoromethyl)pyrimi-din-2-amine], at most 50 nM.
For the molecule `C[C@@]1(O)CCN(CCc2cccc(-n3cnc(-c4nc(NC5CCN(S(C)(=O)=O)CC5)ncc4C(F)(F)F)c3)c2Cl)C1` [Example 374, (R)-1-(2-Chloro-3-(4-(2-((1-(methylsulfonyl)piperidin-4-yl)amino)-5-(trifluoromethyl)pyrimi-din-4-yl)-1H-imidazol-1-yl)phenethyl)-3-methylpyrrolidin-3-ol], the IC50 was at most 50 nM.

What is called IC50 is the concentration needed to halve the response being measured. Low values mean greater potency in that assay, high ones weaker potency in that assay.
